Key:
[1] = Heat resistance by thermal analysis (TG/DTA in air); format: physicochemical; conditions: temperature at which amount of supported chemical component is reduced by 1/3, 30-600° C., 20° C./min
Protocol: Furthermore, it was confirmed by thermal analysis that the supported N,N-diethyl-m-toluamide acquired heat resistance. The thermal analysis was carried out using a Model TG/DTA220 manufactured by Seiko Instruments under an air atmosphere, the measurement temperature was 30° C. to 600° C., and the rate of temperature increase was 20° C./min. Since the measurement is carried out in air, the overall heat resistance in air including vaporization and oxidative decomposition can be evaluated, and N,N-diethyl-m-toluamide that only adheres to the surface of a porous substance having a large specific surface area is subjected to oxidative decomposition at relatively low temperature and the weight decreases, whereas it is expected that N,N-diethyl-m-toluamide that is packed between layers of the inorganic layered compound without gaps is resistant to vaporization and oxidative decomposition and the weight will be maintained up to a higher temperature. […]

[2] = Evaluation of resin moldability (injection molding in polyethylene resin); format: physicochemical; conditions: repellent chemical 0.3 %, molding 250° C., residence 5 min
Source text: The durable pest repellents prepared in Examples 1-1 to 1-10, and the comparative pest repellents prepared in Comparative Examples 1-1 to 1-14 and Comparative Reference Example 1-1 were mixed with a polyethylene resin (PE-NUC-8350, Nippon Unicar Co., Ltd.). For example, in the durable pest repellent of Example 1-1, since the amount of pest repellent chemical supported was 3 mass %, when the amount of repellent added in a resin composition shown in Table 2 was 5%, the amount of pest repellent chemical added was calculated as 0.15 mass %, and when the amount of repellent added in the resin composition was 10%, the amount of pest repellent chemical added was calculated as 0.3 mass %.
Resin compositions were produced by adjusting the amount of each repellent added to the resin composition so that the amount of pest repellent chemical added in the resin composition was 0.3 mass %, 0.15%, and 0.6%, they were injection-molded into flat plates, and evaluation of whether kneading into the resin was possible was carried out. Molding was carried out using a Model M-50A(II)-DM manufactured by Meiki Co., Ltd. at a molding temperature of 250° C., thus giving 10 cm square plates having a thickness of 2 mm. Furthermore, the residence time was 5 minutes, and checks as to whether or not there was foaming, a strange smell, or discoloration during molding were carried out. […]
The durable pest repellents prepared in Examples 2-1 to 2-12, the comparative pest repellents prepared in Comparative Examples 2-1 to 2-4, and Comparative Reference Example 2-1 were mixed with a polyethylene resin (PE-NUC-8350, Nippon Unicar Co., Ltd.). For example, in the durable pest repellent of Example 2-1, since the amount of pest repellent chemical supported was 5 mass %, when the amount of repellent added in a resin composition shown in Table 4 was 3%, the amount of pest repellent chemical added was calculated as 0.15 mass %, and when the amount of repellent added in the resin composition was […], the amount of pest repellent chemical added was calculated as 0.3 mass %. […]

[3] = tested on: house dust mite; experiment: Evaluation of repellency, anti-mite intrusion-prevention method JIS L 1920; format: in vivo; conditions: polyethylene plate, repellent chemical 0.3 %
Protocol: (§1) Plates molded after adding the pest repellents prepared in Examples 1-1 to 1-10 and Comparative Examples 1-1 to 1-14 and Comparative Reference Example 1-1 to a polyethylene resin (PE-NUC-8350 manufactured by Nippon Unicar Co., Ltd.) so that the pest repellent chemical was 0.3 mass % of the entire resin composition were cut into circles having a diameter of a little under 4 cm and subjected to a test for anti-mite properties. The test was carried by an intrusion-prevention method in accordance with JIS L 1920 ‘Testing methods for efficacy against house dust mite of textiles’. Plates molded after adding the durable pest repellents prepared in Examples 2-1 to 2-4, comparative pest repellents prepared in Comparative Examples 2-1 to 2-4, and Comparative Reference Example 2-1 to a polyethylene resin (PE-NUC-8350 manufactured by Nippon Unicar Co., Ltd.) so that the pest repellent chemical was 0.3 mass % of the entire resin composition were cut into circles having a diameter of a little under 4 cm and subjected to a test for anti-mite properties. The test was carried by an intrusion-prevention method in accordance with JIS L 1920 ‘Testing methods for efficacy against house dust mite of textiles’.

[4] = tested on: house dust mite; experiment: Evaluation of persistence of repellence (after heating), JIS L 1920; format: in vivo; conditions: polyethylene plate, repellent chemical 0.3 %; held at 81° C. for 48 hours
Protocol: as §1, with “pest repellent component was 0.3” for “pest repellent chemical was 0.3”, “mass % were held in a dryer at 81° C. for 48 hours. They were cut” for “mass % of the entire resin composition were cut”, “2-1 to 2-12, the comparative pest” for “2-1 to 2-4, comparative pest”

CCN(CC)C(=O)c1cccc(C)c1 [Comp. Ref. Ex. 1-1, N,N-diethyl-m-toluamide]
Heat resistance [1]: 180 °C | Molding properties Bad smell [2]: Some | Molding properties Coloration [2]: None | Molding properties Foaming [2]: Some | Initial percentage repellence [3]: 21% | Post-heating percentage repellence [4]: 0%
